Read-outs that look alike come from different tables or passages of the source.
Assays:
[1] = test system: Klebsiella pneumoniae; assay: In vivo activity against lethal intraperitoneal Klebsiella pneumoniae infection in mice, single oral or subcutaneous dose; set-up: species or system Klebsiella pneumoniae (infection in Charles River CD-1 mice); conditions: CD-1 mice
Description: Other representative compounds of the present invention were similarly tested against a lethal infection of Klebsiella pneumoniae in mice. Charles River CD-1 mice, each weighing about 20 g, were infected intraperitoneally with a lethal dose of Klebsiella pneumoniae. The median effective doses (ED50) in mg/kg were derived from the pooled data of three separate tests (including two range finding tests). The control, 7β-[2-(2-amino thiazol-4-yl)-(Z)-2-methoximinoacetamido]-3-[(1,2,3-thiadiazol-5-yl)-thiomethyl]ceph-3-em-4-carboxylic acid, provides a basis for comparison. All compounds were administered by single subcutaneous dose and single oral dose.

[2] = test system: Escherichia coli No. 311; assay: In vivo activity against lethal intraperitoneal Escherichia coli No. 311 infection in mice, single oral or subcutaneous dose; set-up: species or system Escherichia coli (infection in Charles River CD-1 mice); conditions: E. coli No. 311, CD-1 mice; for ED50: Escherichia coli, pooled data of three tests (cefaclor: estimated from two separate tests)
Description: To establish the pro-drug activity of, for example, the pivaloyloxymethyl ester of 7β-[2-(2-aminothiazol-4-yl)-(Z)-2-methoximinoacetamido]-3-[(1,2,3-thiadiasol-5-yl)-thiomethyl]ceph-3-em-4-carboxylic acid, the unesterified carboxylic acid and cefaclor (as control) were administered by single subcutaneous dose and single oral dose to separate groups of Charles River CD-1 mice, each weighing about 20 g, which mice had been infected intraperitoneally with a lethal dose of Escherichia coli No. 311. The median effective doses (ED50) in mg/kg were derived from the pooled data of three separate tests (including two range finding tests. The results of this testing appear in Table I.

[3] = single oral dose, pooled data of three tests, (95% Conf. Lim.), read-out: ED50, Single Oral Dose
[4] = sc, single subcutaneous dose, pooled data of three tests, (95% Conf. Lim.), read-out: ED50, Single Subcut. Dose
[5] = sc, single subcutaneous dose, read-out: ED50, Single Subcut. Dose
[6] = single oral dose, read-out: ED50, Single Oral Dose

Compound | Ratio Oral ED50 / Subcutaneous ED50 [1] | ED50 [1, 3] | ED50 [1, 4] | ED50, Single Oral Dose ([1]; single oral dose, pooled data of three tests, (95% Conf. Lim.)) | ED50, Single Subcut. Dose ([1]; single subcutaneous dose, pooled data of three tests, (95% Conf. Lim.)) | Ratio Oral ED50 / Subcutaneous ED50 [2] | ED50 [2, 5] | ED50 [2, 6]
CCCCCCCCCCOCOC(=O)C1=C(CSc2cnns2)CS[C@@H]2[C@H](NC(=O)/C(=N\OC)c3csc(N)n3)C(=O)N12 [Declyoxymethyl ester, Decyloxymethyl 7β-[2-(2-aminothiazol-4-yl)-(Z)-2-methoximinoacetamido]-3-[(1,2,3-thiadiazol-5-yl)-thiomethyl]ceph-3-em-4-carboxylate] | 4 | 8 to 16 mg/kg | 2 to 4 mg/kg | – | – | – | – | –
Methylthiomethyl 7β-[2-(2-aminothiazol-4-yl)-(Z)-2-methoximinoacetamido]-3-[(1,2,3-thiadiazol-5-yl)-thiomethyl]ceph-3-em and ceph-2-em-carboxylate [methylthiomethyl ester] | 4 | – | – | 8 to 16 mg/kg | 2 to 4 mg/kg | – | – | –
CO/N=C(\C(=O)N[C@@H]1C(=O)N2C(C(=O)OC(C)OC(C)=O)=C(CSc3cnns3)CS[C@H]12)c1csc(N)n1 (stereo partly drawn) [Acetoxyethyl ester, Acetoxyethyl 7β-[2-(2-aminothiazol-4-yl)-(Z)-2-methoximinoacetamido]-3-[(1,2,3-thiadiazol-5-yl)-thiomethyl]ceph-3-em-4-carboxylate] | 2 | 2 to 4 mg/kg | 1 to 2 mg/kg | – | – | – | – | –
CO/N=C(\C(=O)N[C@@H]1C(=O)N2C(C(=O)OC3OC(=O)c4ccccc43)=C(CSc3cnns3)CS[C@H]12)c1csc(N)n1 (stereo partly drawn) [Phthalidyl ester, Phthalidyl 7β-[2-(2-aminothiazol-4-yl)-(Z)-2-methoximinoacetamido]-3-[(1,2,3-thiadiazol-5-yl)-thiomethyl]ceph-3-em-4-carboxylate] | 16 | 8 to 16 mg/kg | 0.5 to 1 mg/kg | – | – | – | – | –
COCOC(=O)C1=C(CSc2cnns2)CS[C@@H]2[C@H](NC(=O)/C(=N\OC)c3csc(N)n3)C(=O)N12 [Methoxymethyl ester, Methoxymethyl 7β-[2-(2-aminothiazol-4-yl)-(Z)-2-methoximinoacetamido]-3-[(1,2,3-thiadiazol-5-yl)-thiomethyl]ceph-3-em-4-carboxylate] | 16 | 8 to 16 mg/kg | 0.5 to 1 mg/kg | – | – | – | – | –
CCOC(=O)OC(C)OC(=O)C1=C(CSc2cnns2)CS[C@@H]2[C@H](NC(=O)/C(=N\OC)c3csc(N)n3)C(=O)N12 (stereo partly drawn) [Ethoxycarbonyl-Ethoxyethyl ester] | 2 | 1 to 2 mg/kg | 0.5 to 1 mg/kg | – | – | – | – | –
CO/N=C(\C(=O)N[C@@H]1C(=O)N2C(C(=O)OCOC(=O)c3ccccc3)=C(CSc3cnns3)CS[C@H]12)c1csc(N)n1 [benzoyloxymethyl ester, Benzoyloxymethyl 7β-[2-(2-aminothiazol-4-yl)-(Z)-2-methoximinoacetamido]-3-[(1,2,3-thiadiazol-5-yl)-thiomethyl]ceph-3-em-4-carboxylate] | 2 | 4 to 8 mg/kg | 2 to 4 mg/kg | – | – | – | – | –
N[C@@H](C(=O)N[C@@H]1C(=O)N2C(C(=O)O)=C(Cl)CS[C@H]12)c1ccccc1 [Cefaclor] | – | – | – | – | – | 2.8 | 5.7 mg/kg | 16 mg/kg
CCCCCCCCCCCCCC(=O)OCOC(=O)C1=C(CSc2cnns2)CS[C@@H]2[C@H](NC(=O)/C(=N\OC)c3csc(N)n3)C(=O)N12 [Myristoyloxymethyl ester, Myristoyloxymethyl 7β-[2-(2-aminothiazol-4-yl)-(Z)-2-methoximinoacetamido]-3-[(1,2,3-thiadiazol-5-yl)-thiomethyl]ceph-3-em-4-carboxylate] | 16 | 8 to 16 mg/kg | 0.5 to 1 mg/kg | – | – | – | – | –
CO/N=C(\C(=O)N[C@@H]1C(=O)N2C(C(=O)OCOC(C)=O)=C(CSc3cnns3)CS[C@H]12)c1csc(N)n1 [Acetoxymethyl, Acetoxymethyl 7β-[2-(2-aminothiazol-4-yl)-(Z)-2-methoximinoacetamido]-3-[(1,2,3-thiadiazol-5-yl)thiomethyl]ceph-3-em-4-carboxylate] | 8 | 8 to 16 mg/kg | 1 to 2 mg/kg | – | – | – | – | –
CO/N=C(\C(=O)N[C@@H]1C(=O)N2C(C(=O)O)=C(CSc3cnns3)CS[C@H]12)c1csc(N)n1 [Unesterified acid, 7β-[2-(2-aminothiazol-4-yl)-(Z)-2-methoximinoacetamido]-3-[(1,2,3-thiadiazol-5-yl)-thiomethyl]ceph-3-em-4-carboxylic acid, reference compound] | 16 | 8 to 16 mg/kg | 0.5 to 1 mg/kg | – | – | 28 | 0.26 mg/kg | 7.2 mg/kg
CO/N=C(\C(=O)N[C@@H]1C(=O)N2C(C(=O)OCOC(=O)C34CC5CC(CC(C5)C3)C4)=C(CSc3cnns3)CS[C@H]12)c1csc(N)n1 [Adamantylcarbonyl-oxymethyl, Adamantane-1-carbonyloxymethyl-7β-[2-(2-aminothiazol-4-yl)-(Z)-2-methoximinoacetamido]-3-[(1,2,3-thiadiazol-5-yl)-thiomethyl]ceph-3-em-4-carboxylate] | 2 | 2 to 4 mg/kg | 1 to 2 mg/kg | – | – | – | – | –
CO/N=C(\C(=O)N[C@@H]1C(=O)N2C(C(=O)OCOC(=O)C(C)(C)C)=C(CSc3cnns3)CS[C@H]12)c1csc(N)n1 [Pivaloyloxymethyl ester, Pivaloyloxymethyl 7β-[2-(2-aminothiazol-4-yl)-(Z)-2-methoximinoacetamido]-3-[(1,2,3-thiadiazol-5-yl)-thiomethyl]ceph-3-em-4-carboxylate] | – | – | – | – | – | 3.8 | 0.53 mg/kg | 2 mg/kg

Source: patent US4914091A, “Esters of cephalosporin derivitives” (American Cyanamid Company, priority 1984, dated 1990)
